# Results: publication PMC12434091, “Real-time monitoring with iTLR4 assay identifies ligand-dependent TLR4-TLR4 conformational dynamics” (Frontiers in Immunology, 2025)
# pEC50: −log10 of the molar value.
# Molecular target: T1, Toll-like receptor 4 (TLR4) (Homo sapiens, UniProt O00206)
# T1 construct: HA-TLR4-NLuc and HA-TLR4-Venus (C-terminal tags); with MD2 and CD14 (co-expressed; not required)
# Test: BRET TLR4-TLR4 proximity assay (iTLR4) in transfected HEK293 cells
# Format: cell-based
# T1 sequence (O00206 24-839): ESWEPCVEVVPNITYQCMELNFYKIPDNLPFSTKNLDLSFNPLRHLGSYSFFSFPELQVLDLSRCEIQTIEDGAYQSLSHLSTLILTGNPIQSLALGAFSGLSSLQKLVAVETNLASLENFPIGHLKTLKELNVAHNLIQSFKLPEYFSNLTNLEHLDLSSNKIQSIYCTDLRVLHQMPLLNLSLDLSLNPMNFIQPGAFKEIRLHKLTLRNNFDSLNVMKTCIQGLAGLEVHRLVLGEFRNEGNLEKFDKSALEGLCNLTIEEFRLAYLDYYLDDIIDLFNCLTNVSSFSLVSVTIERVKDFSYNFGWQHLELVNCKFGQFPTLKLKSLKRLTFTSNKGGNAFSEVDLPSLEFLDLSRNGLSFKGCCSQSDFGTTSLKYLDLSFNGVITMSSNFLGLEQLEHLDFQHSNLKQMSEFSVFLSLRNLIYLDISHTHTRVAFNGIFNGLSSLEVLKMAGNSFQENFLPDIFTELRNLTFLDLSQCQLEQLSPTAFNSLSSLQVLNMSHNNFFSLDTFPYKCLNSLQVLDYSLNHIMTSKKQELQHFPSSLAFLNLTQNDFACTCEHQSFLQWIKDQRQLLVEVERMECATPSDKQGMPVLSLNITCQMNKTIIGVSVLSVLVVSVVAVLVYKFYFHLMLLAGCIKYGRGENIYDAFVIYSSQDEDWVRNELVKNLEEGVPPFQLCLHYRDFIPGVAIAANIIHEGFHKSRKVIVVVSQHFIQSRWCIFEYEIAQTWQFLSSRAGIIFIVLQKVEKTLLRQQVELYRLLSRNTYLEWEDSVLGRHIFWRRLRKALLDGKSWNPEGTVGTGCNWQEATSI
# T1 sequence (Q9Y6Y9 19-160 partner): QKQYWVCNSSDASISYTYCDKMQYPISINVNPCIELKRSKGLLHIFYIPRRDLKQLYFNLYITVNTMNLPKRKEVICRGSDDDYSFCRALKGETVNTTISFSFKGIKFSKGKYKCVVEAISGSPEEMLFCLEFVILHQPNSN
# T1 sequence (P08571 20-345 partner): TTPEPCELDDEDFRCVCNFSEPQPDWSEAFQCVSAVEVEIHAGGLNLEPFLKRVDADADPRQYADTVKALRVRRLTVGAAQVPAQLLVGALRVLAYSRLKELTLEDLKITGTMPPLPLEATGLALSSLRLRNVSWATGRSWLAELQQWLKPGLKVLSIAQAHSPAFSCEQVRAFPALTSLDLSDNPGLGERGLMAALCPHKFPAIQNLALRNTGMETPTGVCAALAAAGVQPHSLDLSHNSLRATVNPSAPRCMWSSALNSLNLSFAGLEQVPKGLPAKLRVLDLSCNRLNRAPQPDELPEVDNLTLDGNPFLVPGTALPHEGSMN
row,Structure (SMILES),pEC50
1,C=CCN1CC[C@@]23c4c5ccc(O)c4O[C@@H]2C(=O)CC[C@]3(O)[C@@H]1C5 [(+)-naloxone],5.38
2,C=CCN1CC[C@]23c4c5ccc(O)c4O[C@H]2C(=O)CC[C@@]3(O)[C@H]1C5 [(-)-naloxone],5.52
